Experimental data as given in ChEMBL document CHEMBL3813611, “Antiprotozoal activity of bicycles featuring a dimethylamino group at their bridgehead” (Bioorg Med Chem, 2016).

Columns and labels:
Plasmodium falciparum = assay: Antiplasmodial activity against chloroquine/pyrimethamine resistant Plasmodium falciparum K1 infected in human red blood cells after 48 hrs by [3H]hypoxanthine incorporation assay; type: functional, organism-based
[1] = tested on: Trypanosoma brucei rhodesiense; assay: Antitrypanosomal activity against Trypanosoma brucei rhodesiense STIB 900 bloodstream forms after 72 hrs by Alamar blue assay; type: functional, organism-based; settings: STIB 900, 72 h
L6 = assay: Cytotoxicity against rat L6 cells assessed as reduction in cell viability after 72 hrs by Alamar blue assay; type: cell-based; settings: L6, 72 h
[2] = Selectivity index, ratio of IC50 for rat L6 cells to IC50 for chloroquine/pyrimethamine resistant Plasmodium falciparum K1 infected in human red blood cells; type: toxicity, cell-based; settings: read-out: Ratio IC50
[3] = Selectivity index, ratio of IC50 for rat L6 cells to IC50 for Trypanosoma brucei rhodesiense STIB 900 bloodstream forms; type: toxicity, cell-based; settings: read-out: Ratio IC50

Structure (SMILES) | IC50 (Plasmodium falciparum) [nM] | IC50 [1] [nM] | IC50 (L6) [nM] | selectivity ratio [2] | selectivity ratio [3]
CCN(CC)CC(=O)N1CCC2(N(C)C)CC(c3ccccc3)C1C(c1ccccc1)C2 (stereo not drawn) | 1300 | 5210 | 89600 | 68.9 | 17.2
CN(C)C12CCN(C(=O)CN3CCCCC3)C(C(c3ccccc3)C1)C(c1ccccc1)C2 (stereo not drawn) | 1720 | 9470 | 141000 | 82.2 | 14.9
CCN(CC)CCCN1CC2C(c3ccccc3)CC(N(C)C)(CC2c2ccccc2)C1 (racemic) | 65 | 460 | 3270 | 50.3 | 7.11
CN1CCN(CCN2CC3C(c4ccccc4)CC(N(C)C)(CC3c3ccccc3)C2)CC1 (racemic) | 250 | 270 | 5260 | 21 | 19.5
CCN(CC)CCC(=O)N1CC2C(c3ccccc3)CC(N(C)C)(CC2c2ccccc2)C1 (racemic) | 390 | 1460 | 15400 | 39.6 | 20.6
CN(C)C12CC(c3ccccc3)C(CN(C(=O)CCN3CCCC3)C1)C(c1ccccc1)C2 (racemic) | 220 | 1570 | 11700 | 53.3 | 7.46
CN(C)C12CC(c3ccccc3)C(CN(C(=O)CN3CCCC3)C1)C(c1ccccc1)C2 (racemic) | 240 | 2160 | 12600 | 52.4 | 5.82
CN1CCN(CCC(=O)N2CC3C(c4ccccc4)CC(N(C)C)(CC3c3ccccc3)C2)CC1 (racemic) | 180 | 1520 | 13000 | 72.1 | 8.54
CN1CCN(CCCN2CC3C(c4ccccc4)CC(N(C)C)(CC3c3ccccc3)C2)CC1 (racemic) | 150 | 110 | 200 | 1.33 | 1.82
CN(C)C12CC(c3ccccc3)C(CN(C(=O)CCN3CCCCC3)C1)C(c1ccccc1)C2 (racemic) | 52 | 1230 | 12400 | 238 | 10.1
CN(C)C12CC(c3ccccc3)C(CN(C(=O)CN3CCCCC3)C1)C(c1ccccc1)C2 (racemic) | 400 | 2400 | 12100 | 30.3 | 5.05
CN(C)C12CC(NC(=O)CN3CCCCC3)C(C(c3ccccc3)C1)C(c1ccccc1)C2 (racemic) | 110 | 480 | 7160 | 65.1 | 14.9
CN(C)C12CC(c3ccccc3)C(CN(CCCN3CCCCC3)C1)C(c1ccccc1)C2 (racemic) | 190 | 150 | 1750 | 9.21 | 11.7
CN(C)C12CC(NC(=O)CCN3CCCCC3)C(C(c3ccccc3)C1)C(c1ccccc1)C2 (racemic) | 690 | 1490 | 7850 | 11.4 | 5.27
CN(C)C12CC(c3ccccc3)C(CN(CCN3CCCC3)C1)C(c1ccccc1)C2 (racemic) | 290 | 540 | 5580 | 19.2 | 10.3
CCN(CC)CCN1CCC2(N(C)C)CC(c3ccccc3)C1C(c1ccccc1)C2 (racemic) | 710 | 1790 | 101000 | 142 | 56.5
CN1CCN(CC(=O)N2CC3C(c4ccccc4)CC(N(C)C)(CC3c3ccccc3)C2)CC1 (racemic) | 430 | 1470 | 9250 | 21.5 | 6.29
CN(C)C12CC(c3ccccc3)C(CN(CCN3CCCCC3)C1)C(c1ccccc1)C2 (racemic) | 90 | 120 | 2920 | 32.4 | 24.3
CN(C)C12CCN(CCN3CCCCC3)C(C(c3ccccc3)C1)C(c1ccccc1)C2 (racemic) | 870 | 2620 | 135000 | 155 | 51.6
CN(C)C12CC(c3ccccc3)C(CN(CCCN3CCCC3)C1)C(c1ccccc1)C2 (racemic) | 150 | 160 | 1550 | 10.3 | 9.69
C[C@@H]1CC[C@H]2[C@@H](C)C(=O)O[C@@H]3O[C@@]4(C)CC[C@@H]1[C@]32OO4 [ARTEMISININ] | 6.4 |  |  | 70400 | 
Nc1nc(N)nc(Nc2ccc([As]3SCC(CO)S3)cc2)n1 (stereo not drawn) [MELARSOPROL] |  |  |  |  | 2000
